Source: patent publication US4695569A, “Bicyclic heterocyclyl containing N-(bicyclic heterocyclyl)-4-piperidinamines” (Janssen Pharmaceutica N.V., priority 1987, dated 1987)
Where two headings read alike, the source gives them in different places.

Legend:
serotonin [1] = details: known serotonin-antagonists, rats treated with compound 48/80; cited from earlier work
[2] = test system: compound 48/80-induced lethality; test: Protection of rats from compound 48/80-induced lethality; type: in vivo, rat (male, inbred Wistar strain); details: Rattus norvegicus, 4 h, read-out: Compound 48/80 lethality test in rats-ED50
Procedure: Protection of rats from compound 48/80-induced lethality
The protection from compound 48/80-induced lethal circulatory collapse appears to be a simple way of evaluating quantitatively the antihistaminic activity of test compounds. Male rats of an inbred Wistar strain, weighing 240-260 g were used in the experiment. After overnight starvation the rats were transferred to conditioned laboratories (temp.=21±1° C., relative humidity=65±5%).
The rats were treated subcutaneously or orally with a test compound or with the solvent (NaCl solution, 0.9%). […] Survival after 4 hours is therefore considered to be a safe criterion of a protective effect of drug administration.
The ED50 -values of the compounds of formula (I) are listed in the first column of table 1. Said ED50 -values are the values in mg/kg body weight at which the tested compounds protect 50% of the tested animals against compound 48/80-induced lethality.

serotonin [3] = test: Antagonistic activity on the effects of serotonin in the gastric lesion test (lesions induced by compound 48/80); type: in vivo, rat (male, Wistar inbred strain)
Excerpt: The compounds of formula (I) and the pharmaceutically acceptable acid addition salts thereof are also potent serotonin-antagonists. The potency of the subject compounds as serotonin-antagonists is clearly evidenced by the results obtained in the following tests wherein the antagonistic activity of the subject compounds on the effect of serotonin is examined.
Antagonistic activity on the effects of serotonin in the gastric lesion test
Comound 48/80 (a mixture of oligomers obtained by condensation of 4-methoxy-N-methylbenzeneethanamine and formaldehyde) is a potent releaser of vasoactive amines from endogenous stores such as, for example, histamine and serotonin. […] The shock, followed by dead, can be avoided if the rats are pretreated with a classical H 1 antagonist.
Male rats of a Wistar inbred strain, weighing 220-250 g, were starved overnight, water being available ad libitum. The test compounds were administered orally as a solution or as a suspension in aqueous medium. A control rat and a "blank" rat received the test compound. One hour later 5-[4-(diphenylmethyl)-1-piperazinylmethyl]-1-methyl-1H-benzimidazole-2-methanol was administered subcutaneously to all rats at the dose of 2.5 mg/kg.
Four hours after the intravenous injection of compound 48/80, the rats were decapitated and the stomachs were removed. Subsequently the stomachs ere inspected for distension and contents (blood, fluid, food) and thoroughly rinsed. The macroscopic lesions were scored from 0 to +++, 0 corresponding to complete absence of visible lesions and the highest score corresponding to reddish rough patches covering more than half the glandular area.

[4] = Rattus norvegicus, po, 4 h; read-out: gastric lesion test ED50 (distension of the stomach and lesions in the glandular area completely absent in 50% of rats)
[5] = Rattus norvegicus, po, 4 h, read-out: gastric lesion test ED50 (distension of the stomach and lesions in the glandular area completely absent in 50% of rats)

| Structure (SMILES) | prevention of cyanosis of ears and extremities, lesions in the glandular area of the stomach and abnormal gastric distension (serotonin [1]) | ED50 [2] [mg/kg] | ED50 (serotonin [3]; [4]) [mg/kg] | ED50 (serotonin [3]; [5]) [mg/kg] |
| --- | --- | --- | --- | --- |
| CN1CCC(=C2c3ccccc3C=Cc3ccccc32)CC1 [cyproheptadine] | prevent completely |  |  |  |
| CN(C)CCCSc1ccccc1NC(=O)/C=C/c1ccccc1 [cinanserin] | prevent completely |  |  |  |
| CN1C[C@H](CNC(=O)OCc2ccccc2)C[C@@H]2c3cccc4c3c(cn4C)C[C@H]21 [metergoline] | prevent completely |  |  |  |
| Fc1ccc(Cn2c(NC3CCN(CCn4c(=S)[nH]c5ccccc54)CC3)nc3ccccc32)cc1 [Compound 142, 1-[2-[4-[[1-[(4-fluorophenyl)methyl]-1H-benzimidazole-2-yl]amino]-1-piperidinyl]ethyl]-1,3-dihydro-2H-benzimidazole-2-thione] |  | 0.16 | 0.63 |  |
| Cc1nc2scc(C)n2c(=O)c1CCN1CCC(Nc2nc3cccnc3n2Cc2ccc(F)cc2)CC1 [Compound 7] |  | 0.04 | 0.31 |  |
| Fc1ccc(Cn2c(NC3CCN(Cc4cn5ccccc5n4)CC3)nc3ccccc32)cc1 [Compound 41] |  | 0.16 | 0.63 |  |
| Cn1cnc2c1c(=O)n(CCN1CCC(Nc3nc4cccnc4n3Cc3ccc(F)cc3)CC1)c(=O)n2C [Compound 12] |  | 0.16 |  | 0.31 |
| CN1CCN2c3ccccc3Cc3ccccc3C2C1 (stereo not shown) [mianserin] | prevent completely |  |  |  |
| O=c1[nH]c2ccccc2c(=O)n1CCN1CCC(Nc2nc3ccccc3n2Cc2ccco2)CC1 [Compound 24] |  | 0.08 | 0.63 |  |
| Fc1ccc(Cn2c(NC3CCN(Cc4cn5cccnc5n4)CC3)nc3ccccc32)cc1 [Compound 40] |  | 0.16 |  | 0.16 |
| Cc1nc2n(c(=O)c1CCN1CCC(Nc3nc4cccnc4n3Cc3ccc(F)cc3)CC1)CCCC2 [Compound 61] |  | 0.04 | 0.31 |  |
| Cc1nc2ccccn2c(=O)c1CCN1CCC(Nc2nc3ccccc3n2Cc2ccco2)CC1 [Compound 5] |  | 0.16 | 0.04 |  |
| Cc1nc2ccccn2c(=O)c1CCN1CCC(Nc2nc3cc(F)c(F)cc3n2Cc2ccc(F)cc2)CC1 [Compound 70] |  | 0.31 | 0.63 |  |
| Cc1nc2n(c(=O)c1CCN1CCC(Nc3nc4cccnc4n3Cc3ccco3)CC1)CC(C)CC2 (stereo not shown) [Compound 58] |  | 0.04 | 0.63 |  |
| NC(=O)C1(N2CCCCC2)CCN(CCCC(=O)c2ccc(F)cc2)CC1 [pipamperone] | prevent completely |  |  |  |
| O=C(CCCN1CCC2(CC1)C(=O)NCN2c1ccccc1)c1ccc(F)cc1 [spiperone] | prevent completely |  |  |  |
| Fc1ccc(Cn2c(NC3CCN(CCc4cn5ccccc5n4)CC3)nc3ccccc32)cc1 [Compound 150, 1-[(4-fluorophenyl)methyl]-N-[1-[2-(imidazo[1,2-a]pyridin-2-yl)ethyl]-4-piperidinyl]-1H-benzimidazol-2-amine] |  | 0.08 | 0.63 |  |
| Cn1c(NCCN2CCC(Nc3nc4ccccc4n3Cc3ccc(F)cc3)CC2)nc2cnccc21.O [Compound 108, N-[2-[4-[[1-[(4-fluorophenyl)methyl]-1H-benzimidazol-2-yl]amino]-1-piperidinyl]ethyl]-1-methyl-1H-imidazo[4,5-c]pyridin-2-amine monohydrate] |  | 0.04 | 0.16 |  |
| Cc1nc2ccccn2c(=O)c1CCN1CCC(Nc2nc3cccnc3n2Cc2ccco2)CC1 [Compound 6] |  | 0.08 | 0.63 |  |
| CN1CCC(=C2c3ccccc3CCc3sccc32)CC1 [pizotifen] | prevent completely |  |  |  |
| Fc1ccc(Cn2c(NC3CCN(CCCCNc4nc5cnccc5[nH]4)CC3)nc3ccccc32)cc1 [Compound 121, N-[4-[4-[[1-[(4-fluorophenyl)methyl]-1H-benzimidazol-2-yl]amino]-1-piperidinyl]butyl]-1H-imidazo[4,5-c]pyridin-2-amine] |  | 0.02 | 0.02 |  |
| Fc1ccc(Cn2c(NC3CCN(CCNc4nc5ncccc5[nH]4)CC3)nc3ccccc32)cc1 [Compound 110] |  | 0.16 | 0.31 |  |
| CC[C@@H](CO)NC(=O)[C@@H]1C=C2c3cccc4c3c(cn4C)C[C@H]2N(C)C1 [methysergide] | prevent completely |  |  |  |
| Cc1nc2scc(C)n2c(=O)c1CCN1CCC(Nc2nc3cccnc3n2Cc2ccco2)CC1 [Compound 10] |  | 0.08 | 0.16 |  |
